Test results taken from patent publication US20250230470A1, “SAFETY SWITCHES TO CONTROL IN VITRO AND IN VIVO PROLIFERATION OF CELL THERAPY PRODUCTS” (Sana Biotechnology, Inc., priority 2024, published 2025).

Key:
Assay type in all cases: cell-based
[1] = system: CDA_AAVS1 iPSCs and pancreatic progenitors; experiment: Cell viability after 5-FC (CDA kill switch) in directed differentiation; settings: 100 μM 5-FC
Experimental: (§1) To validate iCaspase 9 and cytosine deaminase (CDA) kill switch function in vitro, undifferentiated iPSCs and differentiated pancreatic progenitors with either iC9 or CDA knocked into the AURKB or CDK1 loci were tested for selective killing of pluripotent and proliferative cells in a directed differentiation into beta islet cells.
(§2) The kill switch function of CDA, which is inherently specific to proliferative cells, at the AURKB and CDK1 loci was tested in pancreatic progenitor cells generated by directed differentiation from CDA_AURKB iPSCs or CDA_CDK1 iPSCs. […] The partial loss-of-function was similarly observed in the control cell lines with CDA knocked into the AAVS1 locus.

[2] = system: CDA_AURKB iPSCs and pancreatic progenitors; experiment: as above
Experimental: as §1, §2

[3] = system: CDA_CDK1 iPSCs and pancreatic progenitors; experiment: as above
Experimental: as §1, §2

[4] = system: control iPSC (dko) and day 12 pancreatic progenitor cells; experiment: as above; settings: increasing concentrations of 5-FC
Experimental: as §1, §2

[5] = system: CDA_AAVS1 pancreatic progenitors; experiment: Ki67 staining by flow cytometry of pancreatic progenitor cells untreated or treated with 5-FC; settings: 100 μM 5-FC
Experimental: (§3) In order to test whether the CDA-induced killing was specific to proliferative cells, pancreatic progenitor cells, untreated or treated with 100 μM of 5-FC, were stained for proliferation marker Ki67 and analyzed by flow cytometry.

[6] = system: CDA_AURKB pancreatic progenitors; experiment: as above; settings: 100 μM 5-FC
Experimental: as §3

[7] = system: CDA_CDK1 pancreatic progenitors; experiment: as above; settings: CDA_CDK1 pancreatic progenitor culture; 100 μM 5-FC
Experimental: as §3

`Nc1nc(=O)[nH]cc1F` [5-FC, 5-fluorocytosine] was tested, and the cell viability ([1]; CDA_AAVS1 iPSCs) was “no viable CDA_AAVS1 iPSCs”, the viability at 100 µM ([1]; iPSC, read-out: cells remained viable, CDA_AAVS1 pancreatic progenitors) was 50% and the cell killing ([2]; CDA-AURKB pancreatic progenitors, day 12 of differentiation) was “partial loss of CDA function”. For the same compound, the “5-FC concentration at which viability began to decrease” value ([2]; CDA_AURKB iPSCs) was “about 5 μM”, the cell viability ([2]; CDA_AURKB iPSCs, about 100 μM 5-FC) was “complete cell death” and the cell viability ([3]; CDA_CDK1 iPSCs, 100 μM 5-FC) was “complete cell death”. For the same compound, the cell killing ([3]; CDA_CDK1 pancreatic progenitors, day 12 of differentiation) was “partially lost CDA function”, the cell viability [4] was “maintained viability” and the “clearance of Ki-67 expressing cells” value [5] was “clearance of most of the proliferative cells”. The “clearance of Ki-67 expressing cells” value [6] was “a large subset of Ki-67 expressing cells was cleared” and the “clearance of Ki-67 expressing cells” value [7] was “clearance of most of the proliferative cells”.
